Reference: ChEMBL document CHEMBL3507680, “University of Dundee, Gates Library screen for HepG2 cell viability”

Assay: Human HepG2 cell viability assay in 384 well format
Assay type: toxicity, cell-based
Parameters: dose 125 nL, time 70.5 hour; concentration not given beside the values
Details: HepG2 cells, read-out: Inhibition
Work on `Cn1ccnc1COc1ccc(CN2CCC(C(N)=O)CC2)cc1` yielded a cytotoxicity at 70.5 h of -11.1%.
Molecule `Cc1cnn(CC2CCCCN2c2nn3cc(C)nc3s2)c1` (stereo unspecified) has a cytotoxicity at 70.5 h of 21.1%.
Work on `COC(=O)NCCC(=O)NCC1(c2cccc(Cl)c2)CC1` yielded a cytotoxicity at 70.5 h of -6.53%.
Molecule `CN(C)CCO[C@H]1C[C@@H](O)C12CCN(c1nccc3ccccc13)CC2` has a cytotoxicity at 70.5 h of -10.3%.
With `c1cc(CNCc2ccc(-n3cncn3)nc2)cc(OC2CCCC2)c1` the cytotoxicity at 70.5 h was -6.11%.
`O=C(NCc1cccnc1)[C@@H]1C[C@@H]2CCN(c3ncc(F)cn3)C[C@@H]2O1` showed a cytotoxicity at 70.5 h of -12.2%.
Work on `CC(C(=O)N1CCN(c2ncccn2)CC1)n1cncn1` (stereo unspecified) yielded a cytotoxicity at 70.5 h of -9.39%.
For `CCN1CCCC(O)(c2nc(C)c(CCOc3ccc(F)cc3)s2)CC1` (stereo unspecified), the cytotoxicity at 70.5 h was 13.4%.
Work on `Cc1cc(S(C)(=O)=O)c(C)c(S(=O)(=O)N2CCCCCC2)c1` yielded a cytotoxicity at 70.5 h of -7.91%.
`CCCNC(=O)CN(C)C1CCN(c2ccc(Cl)cc2)CC1` showed a cytotoxicity at 70.5 h of -6.78%.
For `c1ccc(CN2C[C@@H]3COC[C@]3(COCc3ccncc3)C2)nc1`, the cytotoxicity at 70.5 h was -2.45%.
In the case of `Cc1ccc(N2CCC(C(=O)O)(n3ccc(C(C)C)n3)CC2)nn1`, the cytotoxicity at 70.5 h is reported as -1.26%.
`Cc1ccc2c(c1)c(CNC(=O)C1CCN(CC(N)=O)CC1)nn2C` gave a cytotoxicity at 70.5 h of -2.32%.
In the case of `CC(=O)N1C[C@H](NS(=O)(=O)c2cccc(Cl)c2)[C@@H](C(C)C)C1`, the cytotoxicity at 70.5 h is reported as -9.51%.
Molecule `CC(C)=CCC/C(C)=C\CNCc1ccco1` has a cytotoxicity at 70.5 h of 2.6%.
With `COCCc1noc(Cn2c(=O)[nH]c3ccccc32)n1` the cytotoxicity at 70.5 h was -10.2%.
For `Cc1nc(N(C)C)ncc1C(=O)NCCc1csc(-c2cnccn2)n1`, the cytotoxicity at 70.5 h was -6.1%.
In the case of `CCCc1noc(CCC(=O)N2CCCC2c2cccs2)n1` (stereo unspecified), the cytotoxicity at 70.5 h is reported as -2.53%.
`CC(O)CN(CC(=O)NC1CCCCC1)c1ccccc1` (stereo unspecified) gave a cytotoxicity at 70.5 h of 8.65%.
For `CN(C)C1CCN(c2cc(-c3ccccc3)nc3ccnn23)C1` (stereo unspecified), the cytotoxicity at 70.5 h was 5.02%.
Molecule `O=C1Nc2ccccc2C12CCCN(Cc1ccc3c(c1)OCCO3)C2` (stereo unspecified) has a cytotoxicity at 70.5 h of -11.8%.
With `CC1(C)CC(N(Cc2ccncc2)Cc2cccnc2)CC(C)(C)N1` the cytotoxicity at 70.5 h was 27.1%.
For `COc1ccc(CNCc2cc(Br)c3c(c2)OCO3)cc1`, the cytotoxicity at 70.5 h was -3.3%.
`Cc1ccc(-c2noc(C3CCN3C(=O)c3ccn(C)n3)n2)s1` (stereo unspecified) showed a cytotoxicity at 70.5 h of 1.02%.
Work on `c1csc(NCc2n[nH]c3c2CCN(CC2CC2)C3)n1` yielded a cytotoxicity at 70.5 h of -14.2%.
In the case of `NS(=O)(=O)c1cnn(CC(=O)Nc2c(Cl)cccc2Cl)c1`, the cytotoxicity at 70.5 h is reported as -5.76%.
In the case of `CS(=O)(=O)N1CCN(C(=O)c2cc(-c3cccs3)cs2)CC1`, the cytotoxicity at 70.5 h is reported as -5.33%.
Molecule `CSc1ccc(-n2nnc(C(=O)O)c2-c2ccccn2)cc1` has a cytotoxicity at 70.5 h of 11.2%.
`NC(=O)CN1CC[C@@]2(O)CCCC[C@H]2[C@@H]1c1ccc2c(c1)OCO2` gave a cytotoxicity at 70.5 h of -2.64%.
`Cc1ccoc1C(=O)NCC(c1ccccc1Cl)N1CCOCC1` (stereo unspecified) gave a cytotoxicity at 70.5 h of -1.62%.
`Cc1c(C(=O)N2CCCOCC2)nnn1-c1cccc2cnccc12` gave a cytotoxicity at 70.5 h of -0.438%.
`CCc1cn[nH]c1C1CCN(C(=O)c2cccc(O)c2C)CC1` showed a cytotoxicity at 70.5 h of -12.3%.
With `CC(C)N1CCN(C(=O)Nc2cnn(CC(N)=O)c2)CC1` the cytotoxicity at 70.5 h was 18.2%.
With `COCC1CCN(S(=O)(=O)N2C[C@H](c3ccccc3)[C@@H](N)C2)CC1` the cytotoxicity at 70.5 h was -1.87%.
`CC(C)NC(=O)CNC(=O)N1CCc2c([nH]c3ccc(Cl)cc23)C1` showed a cytotoxicity at 70.5 h of -7.52%.
With `CSc1cccc(CN2CCC(CCC(=O)NCCN(C)C)CC2)c1` the cytotoxicity at 70.5 h was -6.05%.
With `O=C(c1cccs1)N1CCC2(C1)c1ccccc1S(=O)(=O)N2CC1CC1` (stereo unspecified) the cytotoxicity at 70.5 h was -3.76%.
For `COc1ccc(CN2CCN(C(C)=O)CC3(CC(=O)N(C)C3)C2)cc1` (stereo unspecified), the cytotoxicity at 70.5 h was -0.064%.
With `Cc1nc(C)n(Cc2cccc(NC(=O)NC(C)(CO)C3CC3)c2)n1` (stereo unspecified) the cytotoxicity at 70.5 h was -6.87%.
`CNC(=O)CNCC1(O)CCCN(Cc2ccc(F)c(F)c2)C1=O` (stereo unspecified) gave a cytotoxicity at 70.5 h of 29%.
`O=C(c1ccc(Cl)s1)N1CCC2(CNS(=O)(=O)c3cnccc3O2)C1` (stereo unspecified) showed a cytotoxicity at 70.5 h of 19.5%.
For `COc1ccccc1CN(Cc1cccnc1)Cc1nccs1`, the cytotoxicity at 70.5 h was 9.35%.
Work on `Cc1cc(NCCN)nc2ccccc12` yielded a cytotoxicity at 70.5 h of -11.3%.
Work on `c1ccc(CCN2CCOC(CNc3cccnn3)C2)nc1` (stereo unspecified) yielded a cytotoxicity at 70.5 h of -12.5%.
Molecule `COc1ccccc1C1CNC(=O)c2nc(-c3ncc[nH]3)[nH]c2C1` (stereo unspecified) has a cytotoxicity at 70.5 h of -10.6%.
`Cn1ccc2ccc(C(=O)N3CCN(C(=O)N4CCOCC4)CC3)cc21` gave a cytotoxicity at 70.5 h of 23.3%.
With `CC(C)Cc1noc(CN2CCCN(C(=O)c3cccc(Cl)c3)CC2)n1` the cytotoxicity at 70.5 h was 23.3%.
`COc1ccc(CN2CCC[C@H]2c2nc(-c3cncnc3N)no2)cc1` gave a cytotoxicity at 70.5 h of 12.8%.
With `COC[C@@H]1CN(C)C(=O)[C@@H]2CCN(Cc3ccco3)CC[C@H]12` the cytotoxicity at 70.5 h was -4.9%.
Work on `CNC(=O)[C@@]12CCC3(CCNCC3)[C@@H]1CN(S(C)(=O)=O)C2` yielded a cytotoxicity at 70.5 h of 4.08%.
Molecule `Cc1nccn1Cc1nnc(C2CCCN(c3cnccn3)C2)n1C` (stereo unspecified) has a cytotoxicity at 70.5 h of -18.6%.
In the case of `O=C(C[S+]([O-])Cc1cccc(F)c1)NC1CCCC1` (stereo unspecified), the cytotoxicity at 70.5 h is reported as 0.67%.
For `CCc1ccc(CC(=O)N2CCN(c3nccn3C)CC2)cc1`, the cytotoxicity at 70.5 h was 8.19%.
For `CCN(C(=O)CN1CCCC1c1cc(C)no1)c1ccccc1C` (stereo unspecified), the cytotoxicity at 70.5 h was -6.07%.
Work on `CCc1n[nH]c(C2CN(Cc3csc(C4CCCC4)n3)CCO2)n1` (stereo unspecified) yielded a cytotoxicity at 70.5 h of 6.69%.
Molecule `Cc1ccccc1CNc1ccc(S(N)(=O)=O)c(C(F)(F)F)c1` has a cytotoxicity at 70.5 h of 4.82%.
`CN(C)CC(=O)N1CCCC2(CCN(c3ccccc3)C2=O)C1` (stereo unspecified) showed a cytotoxicity at 70.5 h of -9.67%.
`CN(Cc1ccccc1)CC(O)Cn1cnc2sccc2c1=O` (stereo unspecified) gave a cytotoxicity at 70.5 h of -8.79%.
Work on `CC(C)COc1cncc(NCCc2nnc3ccccn23)n1` yielded a cytotoxicity at 70.5 h of -4.15%.
For `c1cc2c(cc1OC[C@@H]1CCCN3CCCC[C@H]13)OCCO2`, the cytotoxicity at 70.5 h was 3.85%.
`CN(C(=O)c1cccc(C(=O)NS(C)(=O)=O)c1)c1ccccc1` gave a cytotoxicity at 70.5 h of -8.09%.
Molecule `CN1CCC(N(C)C(=O)CCc2ccc(F)c(F)c2)C1=O` (stereo unspecified) has a cytotoxicity at 70.5 h of -6.34%.
With `N#Cc1cccc(N2CCCC(CO)(Cc3ccccc3F)C2)n1` (stereo unspecified) the cytotoxicity at 70.5 h was 20.1%.
In the case of `Cc1ccc2c(n1)N(CCn1cccn1)CCN(CC1CC1)C2`, the cytotoxicity at 70.5 h is reported as -3.95%.
With `Cc1nc(CNC(C(=O)N2CCOCC2)C(C)C)oc1C` (stereo unspecified) the cytotoxicity at 70.5 h was -5.87%.
With `O=C(C1CC1)N1CCCN(c2ncnc3c2CCNCC3)CC1` the cytotoxicity at 70.5 h was -6.41%.
In the case of `Fc1ccc2c(c1)CCC2NCc1ccc(N2CCOCC2)cc1` (stereo unspecified), the cytotoxicity at 70.5 h is reported as 7.55%.
`CC(C)(C)OC(=O)NCCNC(=O)c1ccc2cc[nH]c2c1` showed a cytotoxicity at 70.5 h of 0.498%.
Work on `CCC1CN(C(=O)c2ccccc2N2CCCC2)CCN1C(C)C` (stereo unspecified) yielded a cytotoxicity at 70.5 h of -4.31%.
In the case of `Cc1cnn(CCNCC(=O)NCC2(c3ccccc3)CCC2)c1`, the cytotoxicity at 70.5 h is reported as 22.8%.
`CCOc1ccc(C(=O)N2CCCC2Cn2cc(C)cn2)cn1` (stereo unspecified) gave a cytotoxicity at 70.5 h of -5.61%.
In the case of `Cc1cnn(CCNCCCOc2ccccc2)c1`, the cytotoxicity at 70.5 h is reported as -7.1%.
Work on `O=S1(=O)N=C(CSCc2ccccc2)Nc2ccccc21` yielded a cytotoxicity at 70.5 h of -3.64%.
`COCC1CC2(CCN(CC3CC3)CC2)CN1Cc1ccccn1` (stereo unspecified) gave a cytotoxicity at 70.5 h of -2.19%.
With `O=C(c1c(O)cnc2ccccc12)N1CCN(CC(F)F)CC1` the cytotoxicity at 70.5 h was -3.97%.
For `CCOc1ccc(C(=O)n2cccn2)cc1`, the cytotoxicity at 70.5 h was -4.2%.
For `CCC1c2ccsc2CCN1C(=O)NCc1ccccn1` (stereo unspecified), the cytotoxicity at 70.5 h was -6.47%.
Work on `CC(C)c1noc(CN2CCC(c3nc4cc(Cl)ccc4o3)CC2)n1` yielded a cytotoxicity at 70.5 h of -19.1%.
For `COc1ccc(F)cc1S(=O)(=O)NCC(c1cccn1C)N(C)C` (stereo unspecified), the cytotoxicity at 70.5 h was -1.76%.
`CSc1ncccc1C(=O)NCCC(O)c1ccco1` (stereo unspecified) gave a cytotoxicity at 70.5 h of 1.61%.
Work on `Cc1csc(-c2ccc(NC(=O)N3CCOCC3)cc2)n1` yielded a cytotoxicity at 70.5 h of -0.264%.
